Test results reported in ChEMBL document CHEMBL3046848, “Synthesis and biological evaluation of novel series of thieno[2,3-d]pyrimidine derivatives as anticancer and antimicrobial agents” (2013).
Converted amounts (≈) assume the structure as drawn.

Assays:
Assay type in all cases: functional
HOP-62 [1] = test: Growth inhibition of Homo sapiens (human) HOP62 cells at 10 uM after 48 hr by SRB assay; details: HOP-62, 48 h, read-out: GI
NCI-H23 = test: Anticancer activity against Homo sapiens (human) NCI-H23 cells after 48 hr by SRB assay; details: NCI-H23, 48 h
IGROV-1 = test: Growth inhibition of Homo sapiens (human) IGROV1 cells at 10 uM after 48 hr by SRB assay; details: IGROV-1, 48 h, read-out: GI
CCRF-CEM [2] = test: Growth inhibition of Homo sapiens (human) CCRF-CEM cells at 10 uM after 48 hr by SRB assay; details: read-out: GI
SF-539 = test: Growth inhibition of Homo sapiens (human) SF539 cells at 10 uM after 48 hr by SRB assay; details: SF-539, 48 h, read-out: GI
BT-549 = test: Anticancer activity against Homo sapiens (human) BT549 cells after 48 hr by SRB assay; details: BT-549, 48 h
SK-MEL-5 = test: Anticancer activity against Homo sapiens (human) SK-MEL-5 cells after 48 hr by SRB assay; details: SK-MEL-5, 48 h
HOP-62 [3] = test: Anticancer activity against Homo sapiens (human) HOP62 cells after 48 hr by SRB assay; details: HOP-62, 48 h
SW-620 = test: Growth inhibition of Homo sapiens (human) SW620 cells at 10 uM after 48 hr by SRB assay; details: SW-620, 48 h, read-out: GI
CCRF-CEM [4] = test: Anticancer activity against Homo sapiens (human) CCRF-CEM cells after 48 hr by SRB assay
NCI/ADR-RES = test: Growth inhibition of Homo sapiens (human) NCI/ADR-RES cells at 10 uM after 48 hr by SRB assay; details: read-out: GI
UO-31 = test: Growth inhibition of Homo sapiens (human) UO31 cells at 10 uM after 48 hr by SRB assay; details: UO-31, 48 h, read-out: GI
Malme-3M = test: Anticancer activity against Homo sapiens (human) MALME-3M cells after 48 hr by SRB assay
HCT-116 = test: Growth inhibition of Homo sapiens (human) HCT116 cells at 10 uM after 48 hr by SRB assay; details: HCT-116, 48 h, read-out: GI
NCI-H460 = test: Growth inhibition of Homo sapiens (human) NCI-H460 cells at 10 uM after 48 hr by SRB assay; details: NCI-H460, 48 h, read-out: GI
U-251 [5] = test: Anticancer activity against Homo sapiens (human) U251 cells after 48 hr by SRB assay; details: U-251, 48 h
OVCAR-5 = test: Growth inhibition of Homo sapiens (human) OVCAR5 cells at 10 uM after 48 hr by SRB assay; details: OVCAR-5, 48 h, read-out: GI
U-251 [6] = test: Growth inhibition of Homo sapiens (human) U251 cells at 10 uM after 48 hr by SRB assay; details: U-251, 48 h, read-out: GI
NCI-H522 = test: Anticancer activity against Homo sapiens (human) NCI-H522 cells after 48 hr by SRB assay; details: NCI-H522, 48 h
Pseudomonas aeruginosa = test: Antimicrobial activity against Pseudomonas aeruginosa ATCC9027 assessed as growth inhibition after 48 hr by two-fold serial dilution method; details: ATCC9027, 48 h
M14 = test: Growth inhibition of Homo sapiens (human) M14 cells at 10 uM after 48 hr by SRB assay; details: M14, 48 h, read-out: GI
HOP-92 = test: Anticancer activity against Homo sapiens (human) HOP92 cells after 48 hr by SRB assay; details: HOP-92, 48 h
HT-29 = test: Anticancer activity against Homo sapiens (human) HT-29 cells after 48 hr by SRB assay; details: HT-29, 48 h
MDA-MB-435 = test: Growth inhibition of Homo sapiens (human) MDA-MB-435 cells at 10 uM after 48 hr by SRB assay; details: MDA-MB-435, 48 h, read-out: GI
SN12C = test: Anticancer activity against Homo sapiens (human) SN12C cells after 48 hr by SRB assay
HCT-15 = test: Growth inhibition of Homo sapiens (human) HCT15 cells at 10 uM after 48 hr by SRB assay; details: HCT-15, 48 h, read-out: GI
HL-60(TB) = test: Anticancer activity against Homo sapiens (human) HL-60(TB) cells after 48 hr by SRB assay; details: HL-60, 48 h
ACHN = test: Anticancer activity against Homo sapiens (human) ACHN cells after 48 hr by SRB assay
DU-145 = test: Anticancer activity against Homo sapiens (human) DU145 cells after 48 hr by SRB assay; details: DU-145, 48 h
SK-MEL-28 = test: Growth inhibition of Homo sapiens (human) SK-MEL-28 cells at 10 uM after 48 hr by SRB assay; details: SK-MEL-28, 48 h, read-out: GI
CAKI-1 = test: Growth inhibition of Homo sapiens (human) CAKI-1 cells at 10 uM after 48 hr by SRB assay; details: CAKI-1, 48 h, read-out: GI
T47D = test: Growth inhibition of Homo sapiens (human) T47D cells at 10 uM after 48 hr by SRB assay; details: read-out: GI
MCF7 = test: Growth inhibition of Homo sapiens (human) MCF7 cells at 10 uM after 48 hr by SRB assay; details: MCF7, 48 h, read-out: GI
LOX IMVI = test: Growth inhibition of Homo sapiens (human) LOXIMVI cells at 10 uM after 48 hr by SRB assay; details: read-out: GI
[7] = read-out: LC50 (the source's name)

For `Cc1c(C(N)=O)sc2nc(C)n(/N=c3\scc(-c4ccccc4)n3Cc3ccccc3)c(=O)c12`, the inhibition of growth at 10 µM (HOP-62 [1]) was 75.8%, the GI50 (NCI-H23) was 3.12 µM and the TGI (NCI-H23) was > 100 µM. The CC50 (NCI-H23; [7]) was > 100 µM, the inhibition of growth at 10 µM (IGROV-1) was 89.1% and the inhibition of growth at 10 µM (CCRF-CEM [2]) was 112%. For the same compound, the inhibition of growth at 10 µM (SF-539) was 77.8%, the GI50 (BT-549) was 2.41 µM and the TGI (BT-549) was 8.89 µM. For the same compound, the CC50 (BT-549; [7]) was > 100 µM, the GI50 (SK-MEL-5) was 1.81 µM and the TGI (SK-MEL-5) was 3.75 µM. The CC50 (SK-MEL-5; [7]) was 7.75 µM, the GI50 (HOP-62 [3]) was 2.82 µM and the TGI (HOP-62 [3]) was 9.47 µM. For the same compound, the CC50 (HOP-62 [3]; [7]) was > 100 µM, the inhibition of growth at 10 µM (SW-620) was 87.5% and the GI50 (CCRF-CEM [4]) was 34.2 µM. The TGI (CCRF-CEM [4]) was > 100 µM, the CC50 (CCRF-CEM [4]; [7]) was > 100 µM and the inhibition of growth at 10 µM (NCI/ADR-RES) was 81.1%. The inhibition of growth at 10 µM (UO-31) was 95.9%, the GI50 (Malme-3M) was 2.18 µM and the TGI (Malme-3M) was > 100 µM. For the same compound, the CC50 (Malme-3M; [7]) was > 100 µM, the inhibition of growth at 10 µM (HCT-116) was 70.9% and the inhibition of growth at 10 µM (NCI-H460) was 92.5%. For the same compound, the GI50 (U-251 [5]) was 3.31 µM, the TGI (U-251 [5]) was > 100 µM and the CC50 (U-251 [5]; [7]) was > 100 µM. It also gave an inhibition of growth at 10 µM (OVCAR-5) of 52.1%, an inhibition of growth at 10 µM (U-251 [6]) of 92.2% and a GI50 (NCI-H522) of 1.73 µM. The TGI (NCI-H522) was 7.23 µM, the CC50 (NCI-H522; [7]) was > 100 µM and the MIC (Pseudomonas aeruginosa) was 125 µg/mL (≈ 256 µM). It also gave an inhibition of growth at 10 µM (M14) of 63.6%, a GI50 (HOP-92) of 1.34 µM and a TGI (HOP-92) of 5.33 µM. For the same compound, the CC50 (HOP-92; [7]) was > 100 µM, the GI50 (HT-29) was 3.04 µM and the TGI (HT-29) was > 100 µM. The CC50 (HT-29; [7]) was > 100 µM, the inhibition of growth at 10 µM (MDA-MB-435) was 87.8% and the GI50 (SN12C) was 3.84 µM. The TGI (SN12C) was > 100 µM, the CC50 (SN12C; [7]) was > 100 µM and the inhibition of growth at 10 µM (HCT-15) was 85.1%. The GI50 (HL-60(TB)) was 6.68 µM, the TGI (HL-60(TB)) was > 100 µM and the CC50 (HL-60(TB); [7]) was > 100 µM. For the same compound, the GI50 (ACHN) was 2.86 µM, the TGI (ACHN) was > 100 µM and the CC50 (ACHN; [7]) was > 100 µM. The GI50 (DU-145) was 3.9 µM, the TGI (DU-145) was > 100 µM and the CC50 (DU-145; [7]) was > 100 µM. The inhibition of growth at 10 µM (SK-MEL-28) was 51.8%, the inhibition of growth at 10 µM (CAKI-1) was 141% and the inhibition of growth at 10 µM (T47D) was 65.3%. For the same compound, the inhibition of growth at 10 µM (MCF7) was 82.7% and the inhibition of growth at 10 µM (LOX IMVI) was 79.4%.
